The values that follow are results of earlier work, collected in patent publication US6562842B2, “Protease inhibitors” (SmithKline Beecham Corporation, priority 1995, dated 2003).

For data set [1], the system named is bone resorption. Particulars: measured by acute changes in serum calcium; rats on calcium deficient diets.
Data set [2] has as its system bone resorption. As to conditions: mouse bone organ culture system.
Data set [3] has as its system bone resorption. Particulars: mouse calvariae.

With `CC(C)C[C@H](NC(=O)[C@H]1O[C@@H]1C(=O)O)C(=O)NCCCCN=C(N)N` [Example E-64, E-64], the “prevention of bone resorption in vivo” value in the data set with bone resorption [1] is “effective at preventing bone resorption in vivo”.
On to `C[C@H](NC(=O)[C@H](Cc1ccccc1)NC(=O)OCc1ccccc1)C(=O)C=[N+]=[N-]` [Z-Phe-Ala-CHN2], for which the “prevention of bone resorption” value with bone resorption [2] is “prevent bone resorption”.
As to `CC(=O)N[C@@H](CC(C)C)C(=O)N[C@@H](CC(C)C)C(=O)N[C@H](C=O)CCCNC(=N)N` [leupeptin], the “prevention of bone resorption in vivo” value in the data set with bone resorption [1] is on record as “effective at preventing bone resorption in vivo”. For the same molecule, the “prevention of bone resorption” value in the data set with bone resorption [2] is “prevent bone resorption”.
cystatin: the “inhibition of PFH stimulated bone resorption” value with bone resorption [3] was “inhibits PFH stimulated bone resorption”.
